Results from patent US7109216B2 (priority 2001, dated 2006).

How the values were obtained:
[1] = target: CB1 receptor (Homo sapiens, UniProt P21554); conditions: Meschler et al. 2000; cited from earlier work
[2] = target: T1, human cannabinoid CB1 receptor (Homo sapiens, UniProt P21554); assay: biochemical; format: binding; set-up: expressed in transfected cells; host or cells: Chinese hamster ovary (CHO) cells, membrane preparation; conditions: hCB1 pKi, [3H]CP-55,940 radioligand; CHO cell membranes stably transfected with human CB1
Description: After incubation of a freshly prepared cell membrane preparation with the [^3H]-ligand, with or without addition of compounds of the invention, separation of bound and free ligand was performed by filtration over glassfiber filters. Radioactivity on the filter was measured by liquid scintillation counting.

[3] = target: T1, human cannabinoid CB1 receptor; assay: Cannabinoid CB1 antagonistic activity, forskolin-induced cAMP accumulation in CHO cells; format: cell-based; set-up: expressed in transfected cells; host or cells: CHO cells; conditions: antagonism of CB1 agonist (e.g. CP-55,940 or (R)-WIN-55,212-2) effect on forskolin-induced cAMP accumulation, CHO cells expressing human CB1; for Kb: read-out: hCB1 pA2 (converted)
Description: The cannabinoid CB1 antagonistic activity of compounds of the invention was determined by functional studies using CHO cells in which human cannabinoid CB1 receptors were stably expressed. Adenylyl cyclase was stimulated using forskolin and measured by quantifying the amount of accumulated cyclic AMP. Concomitant activation of CB1 receptors by CB1 receptor agonists (e.g. CP-55,940 or (R)-WIN-55,212–2) can attenuate the forskolin-induced accumulation of cAMP in a concentration-dependent manner. This CB1 receptor-mediated response can be antagonized by CB1 receptor antagonists such as the compounds of the invention.

T1 sequence (P21554 whole entry): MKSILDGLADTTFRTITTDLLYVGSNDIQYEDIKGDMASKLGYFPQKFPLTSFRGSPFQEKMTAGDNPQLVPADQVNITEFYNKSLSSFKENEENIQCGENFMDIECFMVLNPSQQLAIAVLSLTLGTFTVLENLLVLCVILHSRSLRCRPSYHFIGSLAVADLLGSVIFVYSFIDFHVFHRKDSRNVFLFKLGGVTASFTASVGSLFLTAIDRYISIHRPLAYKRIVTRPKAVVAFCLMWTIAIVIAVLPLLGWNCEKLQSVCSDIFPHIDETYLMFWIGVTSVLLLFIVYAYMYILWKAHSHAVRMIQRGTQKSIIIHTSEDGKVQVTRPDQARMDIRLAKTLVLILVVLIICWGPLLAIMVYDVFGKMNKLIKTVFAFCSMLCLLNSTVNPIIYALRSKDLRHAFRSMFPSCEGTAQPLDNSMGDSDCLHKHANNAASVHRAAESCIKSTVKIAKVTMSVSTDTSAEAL
CB1 receptor, sequence (P21554 whole entry): as above

| SMILES | CB1 receptor subtype selectivity compared with SR141716A [1] | potency compared with SR141716A [1] | Ki [2] | melting point | Kb [3] | hCB1 pA2 [3] |
| --- | --- | --- | --- | --- | --- | --- |
| COc1ccc(-c2c(C#N)c(C(=O)Nc3ccccc3)nn2-c2ccccc2Cl)cc1 [CP-272871] | less CB1 receptor subtype-selective | less potent |  |  |  |  |
| Cc1c(C(=O)NC2CC3CCC2C3)nc(-c2ccc(Cl)cc2Cl)n1-c1ccc(Cl)cc1 (stereo not drawn) [Example 84, N-(Exo-bicyclo[2.2.1]hept-2-yl)-1-(4-chlorophenyl)-2-(2,4-dichlorophenyl)-5-methyl-1H-imidazole-4-carboxamide] |  |  | 15.8 nM | 194 to 195 °C | 1.26 nM |  |
| Cc1c(C(=O)N[C@H]2CC[C@H](O)CC2)nc(-c2ccc(Cl)cc2Cl)n1-c1ccc(Cl)cc1 [Example 86, 1-(4-Chlorophenyl)-2-(2,4-dichlorophenyl)-N-(trans-4-hydroxycyclohexyl)-5-methyl-1H-imidazole-4-carboxamide] |  |  | 126 nM | 160 °C (dec.) | 15.8 nM |  |
| Cc1c(C(=O)NN2CCCCCC2)nc(-c2ccc(Cl)cc2Cl)n1-c1ccc(Cl)cc1 [Example 92, N-(Azepan-1-yl)-1-(4-chlorophenyl)-2-(2,4-dichlorophenyl)-5-methyl-1H-imidazole-4-carboxamide] |  |  | 63.1 nM | 147 to 149 °C | 1.58 nM |  |
| Cc1c(C(=O)NN2CCCC2)nc(-c2ccc(Cl)cc2Cl)n1-c1ccc(Cl)cc1 [Example 93, 1-(4-Chlorophenyl)-2-(2,4-dichlorophenyl)-5-methyl-N-(pyrrolidin-1-yl)-1H-imidazole-4-carboxamide] |  |  | 20 nM | 205 to 206 °C |  | 8.2 |
| Cc1c(C(=O)NN2CCOCC2)nc(-c2ccc(Cl)cc2Cl)n1-c1ccc(Cl)cc1 [Example 94, 1-(4-Chlorophenyl)-2-(2,4-dichlorophenyl)-5-methyl-N-(morpholin-4-yl)-1H-imidazole-4-carboxamide] |  |  | 100 nM | 225 °C (dec.) |  | 7.5 |
| Cc1c(C(=O)NCc2ccc(C(F)(F)F)cc2)nc(-c2ccc(Cl)cc2Cl)n1-c1ccc(Cl)cc1 [Example 106, 1-(4-Chlorophenyl)-2-(2,4-dichlorophenyl)-5-methyl-N-(4-(trifluoromethyl)benzyl)-1H-imidazole-4-carboxamide] |  |  | 100 nM | 232 °C |  | 8.9 |
| Cc1c(C(=O)NC2CCCC2)nc(-c2ccc(Cl)cc2Cl)n1-c1ccc(Cl)cc1 [Example 107, 1-(4-Chlorophenyl)-N-cyclopentyl-2-(2,4-dichlorophenyl)-5-methyl-1H-imidazole-4-carboxamide] |  |  | 158 nM | 172 °C |  | 8.9 |
| Cc1c(C(=O)NC2CCCCCC2)nc(-c2ccc(Cl)cc2Cl)n1-c1ccc(Cl)cc1 [Example 108, 1-(4-Chlorophenyl)-N-cycloheptyl-2-(2,4-dichlorophenyl)-5-methyl-1H-imidazole-4-carboxamide] |  |  | 7.94 nM | 154 to 156 °C |  | 9.1 |
| O=C(NN1CCCCC1)c1nc(-c2ccc(Cl)cc2Cl)n(-c2ccc(Cl)cc2)c1I [Example 111, 1-(4-Chlorophenyl)-2-(2,4-dichlorophenyl)-5-iodo-N-(piperidin-1-yl)-1H-imidazole-4-carboxamide] |  |  | 6.31 nM | 196 to 201 °C | 2.51 nM |  |
| O=C(NN1CCCCC1)c1nc(-c2ccc(Cl)cc2Cl)n(-c2ccc(Cl)cc2)c1Br [Example 117, 1-(4-chlorophenyl)-2-(2,4-dichlorophenyl)-5-bromo-N-(piperidin-1-yl)-1H-imidazole-4-carboxamide] |  |  | 10 nM | 181.5 to 183 °C | 2.51 nM |  |
| CS(=O)(=O)c1c(C(=O)NN2CCCCC2)nc(-c2ccc(Cl)cc2Cl)n1-c1ccc(Cl)cc1 [Example 118, 1-(4-Chlorophenyl)-2-(2,4-dichlorophenyl)-5-methylsulfonyl-N-(piperidin-1-yl)-1H-imidazole-4-carboxamide] |  |  | 15.8 nM | 181 to 185 °C (dec.) |  | 8.5 |
| CSc1c(C(=O)NN2CCCCC2)nc(-c2ccc(Cl)cc2Cl)n1-c1ccc(Cl)cc1 [Example 120, 1-(4-Chlorophenyl)-2-(2,4-dichlorophenyl)-5-methylsulfanyl-N-(piperidin-1-yl)-1H-imidazole-4-carboxamide] |  |  | 12.6 nM | 170 °C (dec.) | 0.631 nM |  |
